From PubChem BioAssay (NCI)
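A five-concentration, 48-hour dose response in 96-well plates underlies each endpoint, interpolated linearly between surrounding concentrations. The concentration for 50% growth inhibition is given as GI50. The concentration for full growth arrest is given as TGI.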

Legend:
Assay in all cases: DTP human tumour cell line panel, 48 h
A549 NSCLC = tested on: A549 NSCLC
HOP-92 NSCLC = tested on: HOP-92 NSCLC
786-0 renal = tested on: 786-0 renal
A498 renal = tested on: A498 renal
HL-60(TB) leukemia = tested on: HL-60(TB) leukemia
M14 melanoma = tested on: M14 melanoma
NCI-H522 lung = tested on: NCI-H522 lung
ACHN renal = tested on: ACHN renal
RXF 393 renal = tested on: RXF 393 renal
SF-268 CNS = tested on: SF-268 CNS
MALME-3M melanoma = tested on: MALME-3M melanoma
COLO 205 colon = tested on: COLO 205 colon
OVCAR-8 ovarian = tested on: OVCAR-8 ovarian
DU-145 prostate = tested on: DU-145 prostate
IGROV1 ovarian = tested on: IGROV1 ovarian
NCI-H460 lung = tested on: NCI-H460 lung
OVCAR-4 ovarian = tested on: OVCAR-4 ovarian
OVCAR-5 ovarian = tested on: OVCAR-5 ovarian
NCI/ADR-RES ovarian = tested on: NCI/ADR-RES ovarian
SN12C renal = tested on: SN12C renal
UO-31 renal = tested on: UO-31 renal
MDA-MB-231 breast = tested on: MDA-MB-231 breast
UACC-257 melanoma = tested on: UACC-257 melanoma
UACC-62 melanoma = tested on: UACC-62 melanoma
KM12 colon = tested on: KM12 colon
SK-MEL-28 melanoma = tested on: SK-MEL-28 melanoma
HCC-2998 colon = tested on: HCC-2998 colon
HS 578T breast = tested on: HS 578T breast
U251 CNS = tested on: U251 CNS
SR leukemia = tested on: SR leukemia
BT-549 breast = tested on: BT-549 breast
SF-539 CNS = tested on: SF-539 CNS
PC-3 prostate = tested on: PC-3 prostate
LOX IMVI melanoma = tested on: LOX IMVI melanoma
RPMI-8226 leukemia = tested on: RPMI-8226 leukemia
EKVX NSCLC = tested on: EKVX NSCLC
HT29 colon = tested on: HT29 colon
SNB-19 CNS = tested on: SNB-19 CNS
CCRF-CEM leukemia = tested on: CCRF-CEM leukemia
MOLT-4 leukemia = tested on: MOLT-4 leukemia
MCF7 breast = tested on: MCF7 breast
K-562 leukemia = tested on: K-562 leukemia
SK-MEL-2 melanoma = tested on: SK-MEL-2 melanoma
MDA-MB-435 = tested on: MDA-MB-435
T-47D breast = tested on: T-47D breast
NCI-H23 lung = tested on: NCI-H23 lung
SK-MEL-5 melanoma = tested on: SK-MEL-5 melanoma
CAKI-1 renal = tested on: CAKI-1 renal
TK-10 renal = tested on: TK-10 renal
NCI-H226 lung = tested on: NCI-H226 lung
HCT-15 colon = tested on: HCT-15 colon
HOP-62 NSCLC = tested on: HOP-62 NSCLC
SF-295 CNS = tested on: SF-295 CNS
HCT-116 colon = tested on: HCT-116 colon
SK-OV-3 ovarian = tested on: SK-OV-3 ovarian
SNB-75 CNS = tested on: SNB-75 CNS
OVCAR-3 ovarian = tested on: OVCAR-3 ovarian
MDA-N = tested on: MDA-N
SW-620 colon = tested on: SW-620 colon

For `CC1(C)C2CCC13C(=O)C1OC3(C2)C2C(=O)c3c(O)ccc(O)c3C(=O)C12` (configuration not stated), the GI50 (A549 NSCLC) was 46.6 µM, the TGI (A549 NSCLC) was over 100 µM and the GI50 (HOP-92 NSCLC) was 17.8 µM. It also gave a TGI (HOP-92 NSCLC) of 46.8 µM, a GI50 (786-0 renal) of 10.5 µM and a TGI (786-0 renal) of 24.7 µM. For the same compound, the GI50 (A498 renal) was 4.95 µM, the TGI (A498 renal) was 56.6 µM and the GI50 (HL-60(TB) leukemia) was 10.6 µM. For the same compound, the TGI (HL-60(TB) leukemia) was over 50.2 µM, the GI50 (M14 melanoma) was 14.1 µM and the TGI (M14 melanoma) was 29.2 µM. The GI50 (NCI-H522 lung) was 38.8 µM, the TGI (NCI-H522 lung) was over 100 µM and the GI50 (ACHN renal) was 41 µM. The TGI (ACHN renal) was over 100 µM, the GI50 (RXF 393 renal) was 31.1 µM and the TGI (RXF 393 renal) was over 56.9 µM. It also gave a GI50 (SF-268 CNS) of over 47.1 µM, a TGI (SF-268 CNS) of over 100 µM and a GI50 (MALME-3M melanoma) of 18.3 µM. For the same compound, the TGI (MALME-3M melanoma) was 50.6 µM, the GI50 (COLO 205 colon) was 25.9 µM and the TGI (COLO 205 colon) was over 61.5 µM. For the same compound, the GI50 (OVCAR-8 ovarian) was 47.2 µM, the TGI (OVCAR-8 ovarian) was over 93.9 µM and the GI50 (DU-145 prostate) was 32.2 µM. For the same compound, the TGI (DU-145 prostate) was 96.5 µM, the GI50 (IGROV1 ovarian) was 23.8 µM and the TGI (IGROV1 ovarian) was over 100 µM. It also gave a GI50 (NCI-H460 lung) of 36.8 µM, a TGI (NCI-H460 lung) of over 100 µM and a GI50 (OVCAR-4 ovarian) of over 100 µM. The TGI (OVCAR-4 ovarian) was over 100 µM, the GI50 (OVCAR-5 ovarian) was 38.3 µM and the TGI (OVCAR-5 ovarian) was over 100 µM. For the same compound, the GI50 (NCI/ADR-RES ovarian) was 17.5 µM, the TGI (NCI/ADR-RES ovarian) was 59.1 µM and the GI50 (SN12C renal) was 16.3 µM. For the same compound, the TGI (SN12C renal) was 35.7 µM, the GI50 (UO-31 renal) was 40.5 µM and the TGI (UO-31 renal) was over 100 µM. It also gave a GI50 (MDA-MB-231 breast) of 44.2 µM, a TGI (MDA-MB-231 breast) of over 70.3 µM and a GI50 (UACC-257 melanoma) of 32.7 µM. The TGI (UACC-257 melanoma) was over 66.7 µM, the GI50 (UACC-62 melanoma) was 97.1 µM and the TGI (UACC-62 melanoma) was over 100 µM. It also gave a GI50 (KM12 colon) of over 50.4 µM, a TGI (KM12 colon) of over 100 µM and a GI50 (SK-MEL-28 melanoma) of 36 µM. For the same compound, the TGI (SK-MEL-28 melanoma) was over 100 µM, the GI50 (HCC-2998 colon) was 42.9 µM and the TGI (HCC-2998 colon) was over 100 µM. The TGI (HS 578T breast) was over 54.4 µM, the GI50 (U251 CNS) was 44.4 µM and the TGI (U251 CNS) was 96.9 µM. The GI50 (SR leukemia) was 5.17 µM, the TGI (SR leukemia) was 17.1 µM and the GI50 (BT-549 breast) was over 70.3 µM. For the same compound, the TGI (BT-549 breast) was over 92.2 µM, the GI50 (SF-539 CNS) was 48 µM and the TGI (SF-539 CNS) was over 100 µM. The GI50 (PC-3 prostate) was 30.8 µM, the TGI (PC-3 prostate) was 98.5 µM and the GI50 (LOX IMVI melanoma) was 32.2 µM. It also gave a TGI (LOX IMVI melanoma) of over 100 µM, a GI50 (RPMI-8226 leukemia) of 1.27 µM and a TGI (RPMI-8226 leukemia) of 6.1 µM. It also gave a GI50 (EKVX NSCLC) of over 100 µM, a TGI (EKVX NSCLC) of over 100 µM and a GI50 (HT29 colon) of 34.1 µM. For the same compound, the TGI (HT29 colon) was over 83.4 µM, the GI50 (SNB-19 CNS) was 61.5 µM and the TGI (SNB-19 CNS) was over 100 µM. For the same compound, the GI50 (CCRF-CEM leukemia) was 4.45 µM, the TGI (CCRF-CEM leukemia) was over 46.9 µM and the GI50 (MOLT-4 leukemia) was 5.93 µM. The TGI (MOLT-4 leukemia) was over 46.6 µM, the GI50 (MCF7 breast) was 35 µM and the TGI (MCF7 breast) was over 100 µM. It also gave a GI50 (K-562 leukemia) of 21.2 µM, a TGI (K-562 leukemia) of over 59.1 µM and a GI50 (SK-MEL-2 melanoma) of 26.1 µM. For the same compound, the TGI (SK-MEL-2 melanoma) was over 100 µM, the GI50 (MDA-MB-435) was 34.9 µM and the TGI (MDA-MB-435) was over 74.5 µM. For the same compound, the GI50 (T-47D breast) was 36.7 µM, the TGI (T-47D breast) was over 64.8 µM and the GI50 (NCI-H23 lung) was 16.4 µM. For the same compound, the TGI (NCI-H23 lung) was 37.5 µM, the GI50 (SK-MEL-5 melanoma) was 13.4 µM and the TGI (SK-MEL-5 melanoma) was 41.5 µM. For the same compound, the GI50 (CAKI-1 renal) was 4.31 µM, the TGI (CAKI-1 renal) was 18.1 µM and the GI50 (TK-10 renal) was 26.1 µM. It also gave a TGI (TK-10 renal) of 69 µM, a GI50 (NCI-H226 lung) of over 79 µM and a TGI (NCI-H226 lung) of over 100 µM. The GI50 (HCT-15 colon) was 18.5 µM, the TGI (HCT-15 colon) was over 54 µM and the GI50 (HOP-62 NSCLC) was 54.5 µM. The TGI (HOP-62 NSCLC) was over 100 µM, the GI50 (SF-295 CNS) was 25.2 µM and the TGI (SF-295 CNS) was over 100 µM. For the same compound, the GI50 (HCT-116 colon) was 34.9 µM, the TGI (HCT-116 colon) was over 100 µM and the GI50 (SK-OV-3 ovarian) was 42.2 µM. It also gave a TGI (SK-OV-3 ovarian) of over 100 µM, a GI50 (SNB-75 CNS) of over 44.4 µM and a TGI (SNB-75 CNS) of over 69.3 µM.
`O=C(/C=C\c1ccccc1-c1ccccc1)c1ccccc1` showed a TGI (A549 NSCLC) of 91.9 µM, a TGI (HOP-92 NSCLC) of over 100 µM and a TGI (786-0 renal) of over 100 µM. It also gave a TGI (A498 renal) of over 100 µM, a TGI (HL-60(TB) leukemia) of over 100 µM and a TGI (M14 melanoma) of over 100 µM. It also gave a TGI (NCI-H522 lung) of over 100 µM, a TGI (ACHN renal) of over 100 µM and a TGI (RXF 393 renal) of over 100 µM. For the same compound, the TGI (SF-268 CNS) was over 100 µM, the TGI (COLO 205 colon) was over 100 µM and the TGI (OVCAR-8 ovarian) was over 100 µM. For the same compound, the TGI (DU-145 prostate) was over 100 µM, the TGI (IGROV1 ovarian) was over 100 µM and the TGI (NCI-H460 lung) was over 100 µM. For the same compound, the TGI (OVCAR-4 ovarian) was over 100 µM, the TGI (OVCAR-5 ovarian) was over 100 µM and the TGI (NCI/ADR-RES ovarian) was over 100 µM. For the same compound, the TGI (SN12C renal) was over 100 µM, the TGI (UO-31 renal) was over 100 µM and the TGI (MDA-MB-231 breast) was over 100 µM. For the same compound, the TGI (UACC-257 melanoma) was over 100 µM, the TGI (UACC-62 melanoma) was over 100 µM and the TGI (KM12 colon) was over 100 µM. The TGI (HCC-2998 colon) was over 100 µM, the TGI (HS 578T breast) was over 100 µM and the TGI (U251 CNS) was over 100 µM. The TGI (SR leukemia) was over 100 µM, the TGI (SF-539 CNS) was over 100 µM and the TGI (OVCAR-3 ovarian) was over 100 µM. The TGI (RPMI-8226 leukemia) was over 100 µM, the TGI (EKVX NSCLC) was over 100 µM and the TGI (HT29 colon) was over 100 µM. The TGI (CCRF-CEM leukemia) was over 100 µM, the TGI (MOLT-4 leukemia) was over 100 µM and the TGI (K-562 leukemia) was over 100 µM. It also gave a TGI (MDA-MB-435) of over 100 µM, a TGI (T-47D breast) of 96 µM and a TGI (NCI-H23 lung) of over 100 µM. The TGI (SK-MEL-5 melanoma) was over 100 µM, the TGI (CAKI-1 renal) was over 100 µM and the TGI (MDA-N) was over 100 µM. The TGI (TK-10 renal) was over 100 µM, the TGI (NCI-H226 lung) was over 100 µM and the TGI (HCT-15 colon) was over 100 µM. The TGI (SW-620 colon) was over 100 µM, the TGI (HOP-62 NSCLC) was over 100 µM and the TGI (SF-295 CNS) was over 100 µM. For the same compound, the TGI (HCT-116 colon) was over 100 µM, the TGI (SK-OV-3 ovarian) was over 100 µM and the TGI (SNB-75 CNS) was over 100 µM.
